PubChem BioAssay AID652229 (The Scripps Research Institute Molecular Screening Center, 2013)
Calls of active or inactive are those of the source.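 The calls were made as follows: active = phosphatase PP5 activity blocked by at least 30% at 50 µM; inactive = the rest.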

The compounds below were run against Serine/threonine-protein phosphatase 5 (Homo sapiens) (UniProt P53041) (assay: PP5 phosphatase inhibition selectivity check, late-stage follow-up, selectivity assay for PP1 inhibitor project, biochemical, radiolabel, 33P-phosphohistone substrate, powder samples (AID 652229)). Conditions: purified PP5c, 33P-phosphohistone dephosphorylation, scintillation; at 50 µM; hits give high values.
Sequence of Serine/threonine-protein phosphatase 5 (Homo sapiens) (P53041 whole entry, looked up): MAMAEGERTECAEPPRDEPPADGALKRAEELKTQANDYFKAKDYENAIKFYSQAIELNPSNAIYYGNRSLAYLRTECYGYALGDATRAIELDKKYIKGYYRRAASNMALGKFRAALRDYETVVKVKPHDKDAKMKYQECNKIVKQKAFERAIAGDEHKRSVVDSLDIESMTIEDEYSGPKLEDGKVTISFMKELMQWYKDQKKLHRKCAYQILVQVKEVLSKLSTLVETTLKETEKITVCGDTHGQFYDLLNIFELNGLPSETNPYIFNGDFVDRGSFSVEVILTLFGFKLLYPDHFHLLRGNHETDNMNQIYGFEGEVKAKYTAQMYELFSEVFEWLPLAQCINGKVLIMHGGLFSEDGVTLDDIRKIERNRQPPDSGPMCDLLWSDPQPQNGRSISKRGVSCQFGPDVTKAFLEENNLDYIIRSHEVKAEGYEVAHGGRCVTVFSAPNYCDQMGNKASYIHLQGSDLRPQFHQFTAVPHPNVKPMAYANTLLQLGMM

| inhibition | SMILES |
| --- | --- |
| -0.6% (inactive) | Oc1c(C(c2ccccn2)N2CCN(c3ccccc3F)CC2)cc(Cl)c2cccnc12 (configuration not stated) |
| 3.21% (inactive) | CCN1CCN(C(c2ccccn2)c2cc(Cl)c3cccnc3c2O)CC1 (configuration not stated) |
| 6.84% (inactive) | Oc1c(C(c2ccccn2)N2CCNCC2)cc(Cl)c2cccnc12 (configuration not stated) |
| 6.08% (inactive) | CC1CCN(C(c2ccccn2)c2cc(Cl)c3cccnc3c2O)CC1 (configuration not stated) |
| 0.25% (inactive) | CC(C)(C)OC(=O)N1CCN(C(c2ccccn2)c2cc(Cl)c3cccnc3c2O)CC1 (configuration not stated) |
| 4.23% (inactive) | Oc1c(C(c2ccccn2)N2CCC(Cc3ccccc3)CC2)cc(Cl)c2cccnc12 (configuration not stated) |
| 3.05% (inactive) | CN1CCN(C(c2ccccn2)c2cc(Cl)c3cccnc3c2O)CC1 (configuration not stated) |
